Columns and labels:
MDR1 (ABCB1) = molecular target: T1, MDR1 (ABCB1) (Homo sapiens, UniProt P08183); experiment: Rhodamine 6G accumulation in MDR1-overexpressing HEK293 cells (flow cytometry); format: cell-based, mammalian
T1 construct: expressed in transfected cells; host or cells: HEK293
Method: (§1) P-gp overexpressing HEK293 cell lines were used to determine if azoffluxin treatment leads to a greater accumulation of fluorescent substrates (MFI) as determined by flow cytometry.
(§2) MDR1 (ABCB1) and MRP1 (ABCC1) was assessed using the fluorescent dyes rhodamine 6G (0.5 μg/mL) and Calcein AM (2.5 μg/mL), for each pump respectively, and the known inhibitor controls tariquidar (60 nM) and MK571 (30 μM) for each pump respectively. Listed data is shown by FIG. 12E (R6G) and FIG. 12F (Cal).

MRP1 (ABCC1) = molecular target: T2, MRP1 (ABCC1) (Homo sapiens, UniProt P33527); experiment: Calcein AM accumulation in MRP1-overexpressing HEK293 cells (flow cytometry); format: cell-based, mammalian; details: Calcein AM 2.5 μg/mL
T2 construct: expressed in transfected cells; host or cells: HEK293
Method: as §1, §2

[1] = test system: CDR1 (B9J08_000164) and CDR4-1 (B9J08_000479); experiment: RT-qPCR of efflux gene expression; format: cell-based, Candida auris; details: azoffluxin alone, 3 hours
Text: FIGS. 3A-3B, and 4A-4B illustrate azoffluxin increases fluconazole (FLC) bioavailability by inhibiting Cdr1-mediated efflux in C. auris, as described above. FIG. 3A depicts the relative abundance of specific sterols determined in C. auris after an 18-hour treatment with the respective compounds (⋅ indicates combo treatment concentrations) using LC-MS. Values are plotted relative to the internal standard of cholesterol and error bars indicate standard deviation between technical triplicates. Significance was determined by an unpaired student t-test of each condition to untreated, (*) indicates a p-value<0.05 and (**) indicates a p-value<0.01. FIG. 3B depicts the intracellular concentrations of FLC and azoffluxin measured after treatment for 1 hour (conditions as in FIG. 3A) Error bars indicate standard deviation between technical triplicates. Significance was determined by an unpaired student t-test, (**) indicates a p-value<0.01. FIG. 4A depicts the quantified relative expression of a panel of putative efflux pumps in C. auris Ci6684. Expression of CDR1 (B9J08_000164), MDR1 (B9J08_003981), CDR4-1 (B9J08_000479), CDR4-2 (B9J08_002451), SNQ2-1 (B9J08_001125), and SNQ2-2 (B9J08_004452) was measured by RT-qPCR. […] FIG. 4B depicts expression of CDR1 (B9J08_000164) and CDR4-1 (B9J08_000479) measured by quantitative real-time PCR (RT-qPCR). […]

T2 sequence (P33527 whole entry): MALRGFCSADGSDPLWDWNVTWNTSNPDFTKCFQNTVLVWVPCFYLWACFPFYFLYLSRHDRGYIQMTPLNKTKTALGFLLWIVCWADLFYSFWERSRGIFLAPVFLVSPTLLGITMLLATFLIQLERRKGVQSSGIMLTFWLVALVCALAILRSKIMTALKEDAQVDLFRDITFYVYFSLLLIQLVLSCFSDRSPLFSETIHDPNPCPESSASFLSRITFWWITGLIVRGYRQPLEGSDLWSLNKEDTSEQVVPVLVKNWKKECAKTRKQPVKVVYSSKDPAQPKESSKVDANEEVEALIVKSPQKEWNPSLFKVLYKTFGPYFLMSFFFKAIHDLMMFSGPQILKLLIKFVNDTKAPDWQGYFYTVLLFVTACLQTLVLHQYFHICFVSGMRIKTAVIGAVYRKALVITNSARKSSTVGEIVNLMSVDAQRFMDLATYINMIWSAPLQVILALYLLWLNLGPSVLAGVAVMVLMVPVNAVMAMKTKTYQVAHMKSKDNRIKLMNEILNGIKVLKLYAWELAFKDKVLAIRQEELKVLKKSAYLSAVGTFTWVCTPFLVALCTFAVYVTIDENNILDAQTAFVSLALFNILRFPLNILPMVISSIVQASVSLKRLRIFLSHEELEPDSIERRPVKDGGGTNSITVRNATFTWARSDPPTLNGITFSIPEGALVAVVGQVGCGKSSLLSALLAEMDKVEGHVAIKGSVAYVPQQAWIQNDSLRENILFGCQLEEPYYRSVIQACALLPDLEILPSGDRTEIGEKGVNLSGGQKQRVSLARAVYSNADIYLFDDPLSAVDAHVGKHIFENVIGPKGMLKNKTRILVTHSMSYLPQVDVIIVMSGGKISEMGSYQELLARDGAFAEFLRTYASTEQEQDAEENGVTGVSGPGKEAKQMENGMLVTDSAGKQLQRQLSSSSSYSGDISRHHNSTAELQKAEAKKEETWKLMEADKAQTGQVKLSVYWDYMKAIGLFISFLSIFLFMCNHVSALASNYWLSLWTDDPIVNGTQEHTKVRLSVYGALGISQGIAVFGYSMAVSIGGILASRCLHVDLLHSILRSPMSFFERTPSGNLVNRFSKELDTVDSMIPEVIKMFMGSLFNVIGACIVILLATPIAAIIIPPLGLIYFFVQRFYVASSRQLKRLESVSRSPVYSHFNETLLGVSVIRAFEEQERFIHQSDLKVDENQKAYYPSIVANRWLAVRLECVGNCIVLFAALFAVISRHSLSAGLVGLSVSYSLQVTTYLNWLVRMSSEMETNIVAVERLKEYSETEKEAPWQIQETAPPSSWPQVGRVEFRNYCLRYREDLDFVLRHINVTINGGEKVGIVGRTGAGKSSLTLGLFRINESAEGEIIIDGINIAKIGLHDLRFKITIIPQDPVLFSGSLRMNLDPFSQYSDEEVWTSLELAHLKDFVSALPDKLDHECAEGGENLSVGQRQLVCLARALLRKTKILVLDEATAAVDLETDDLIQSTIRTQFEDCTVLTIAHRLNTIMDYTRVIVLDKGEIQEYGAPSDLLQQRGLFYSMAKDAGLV
T1 sequence (P08183 whole entry): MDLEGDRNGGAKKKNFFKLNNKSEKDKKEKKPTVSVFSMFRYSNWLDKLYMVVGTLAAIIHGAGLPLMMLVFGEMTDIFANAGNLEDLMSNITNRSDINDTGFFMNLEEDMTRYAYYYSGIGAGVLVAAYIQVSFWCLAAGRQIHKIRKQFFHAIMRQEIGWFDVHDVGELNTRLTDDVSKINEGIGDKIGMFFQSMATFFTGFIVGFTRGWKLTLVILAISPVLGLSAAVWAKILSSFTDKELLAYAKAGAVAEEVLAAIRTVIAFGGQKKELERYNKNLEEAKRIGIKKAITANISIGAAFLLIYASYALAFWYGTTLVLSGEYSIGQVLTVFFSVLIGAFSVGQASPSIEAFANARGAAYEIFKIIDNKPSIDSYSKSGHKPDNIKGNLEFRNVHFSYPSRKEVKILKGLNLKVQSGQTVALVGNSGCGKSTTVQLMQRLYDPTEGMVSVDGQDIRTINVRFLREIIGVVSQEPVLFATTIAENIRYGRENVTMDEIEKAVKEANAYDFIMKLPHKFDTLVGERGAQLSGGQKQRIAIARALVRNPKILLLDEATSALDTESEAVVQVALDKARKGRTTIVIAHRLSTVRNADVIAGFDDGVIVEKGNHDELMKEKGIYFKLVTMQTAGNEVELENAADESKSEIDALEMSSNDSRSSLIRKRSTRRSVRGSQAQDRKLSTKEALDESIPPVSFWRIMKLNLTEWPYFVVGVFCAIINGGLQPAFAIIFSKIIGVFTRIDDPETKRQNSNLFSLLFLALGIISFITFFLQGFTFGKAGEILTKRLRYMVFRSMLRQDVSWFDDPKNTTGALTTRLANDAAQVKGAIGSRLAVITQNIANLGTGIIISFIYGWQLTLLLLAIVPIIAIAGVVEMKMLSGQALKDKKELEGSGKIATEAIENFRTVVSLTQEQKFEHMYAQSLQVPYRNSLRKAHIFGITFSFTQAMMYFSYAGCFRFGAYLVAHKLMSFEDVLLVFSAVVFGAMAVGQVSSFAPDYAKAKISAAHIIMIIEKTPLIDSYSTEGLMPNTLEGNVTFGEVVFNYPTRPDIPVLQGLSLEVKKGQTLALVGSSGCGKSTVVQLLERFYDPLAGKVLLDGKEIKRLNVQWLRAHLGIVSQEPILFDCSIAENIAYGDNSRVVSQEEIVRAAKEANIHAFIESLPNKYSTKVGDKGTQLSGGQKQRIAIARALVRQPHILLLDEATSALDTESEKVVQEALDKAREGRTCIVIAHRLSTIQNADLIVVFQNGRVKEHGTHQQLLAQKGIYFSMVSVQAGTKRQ

C=C(C)C[C@@H](O)COc1cc2c(cc1C1(c3cc4c(cc3OC[C@H](O)CC(=C)C)OCO4)C(=O)Nc3cc(F)ccc31)OCO2 [CMLD012336]
dye accumulation in control cDNA cells (MDR1 (ABCB1)): no effect | increase in calcein AM (Cal) (MRP1 (ABCC1)): 2.5 fold | CDR1 and CDR4-1 transcript levels [1]: concentration-dependent increase

— patent publication US11773086B2, “Fungal modulators” (TRUSTEES OF BOSTON UNIVERSITY, priority 2020, dated 2023)
